Measurements: patent US20130046098A1, “KINASE INHIBITORS” (THE UNIVERSITY OF MANCHESTER, priority 2009, published 2013)
“Also recorded” adds a separate entry of the source.

What was measured:
[1] = test system: polyclonal GEF16 transfected NIH3T3 cells; test: Transformed colony forming assay (Toluidine blue)
Procedure: Following this incubation period the compound was then removed from the culture media and cells maintained in normal growth media for a further 10 days before the photographs shown were taken.
In FIG. 4A polyclonal GEF16 transfected cells were seeded at 2.0×10^5 cells per 30 mm dish and incubated over night. […] After a further 10 days culture in the absence of inhibitors the cells were stained with Toluidine blue and photographed to produce the images shown. […] These were incubated for 3 or 6 days then stained with Toluidine blue before being photographed.
Medium (containing the compound of interest—either Y27632 or the selected compounds of the invention—or DMSO control) was changed every 2 days. Formation of foci was analysed by Toluidine blue (Sigma-Aldrich, Poole, UK) staining after 10 days growth post confluence. […] Each assay was carried out in triplicate and the results shown are representative of at least three separate experiments.

[2] = test system: GEF16 transfected NIH3T3 cells; test: Cell proliferation assay (Celltiter Aq96); format: cell-based, mouse; conditions: 10 μM, Cell AQ96 absorbance at 6, 8 and 10 days
Procedure: FIG. 1D is a bar chart showing the results of Cell AQ^96 assessment of the growth of GEF16 and vector transfected cells seeded in a 96 well plate at 1×10^3 cells per well. These were incubated for 3 days followed by addition of reagent to determine the starting point for the assay. 10 μM of either Y27632 or DMSO were then added to wells containing both cell types and Cell AQ^96 absorbance measured at 6, 8 and 10 days. At day 3 cells were 100% confluent which was determined by phase contrast visual inspection of the cultures at ×20 magnification;
Cell proliferation was investigated using Celltiter Aq^96 reagent (Promega, Southampton, UK) according to the manufacturer's protocol. Cells were seeded into a 96-well plate at a density of 1×10^3 cells/well allowing 3 wells per data point and allowed to attach for a set period. Following this, the initial starting point 490 nm absorbance was determined by adding 20 μl of Aq^96 reagent to each well and incubating for 4 h at 37° C. in 5% CO2 (96-well plate reader, Dynex Technologies, West Sussex, UK). The various compounds (Y27632 or compounds of the invention) or DMSO control were then added to duplicate wells and the absorbance determined in the same way at the time points indicated. Each data set shown is representative of three separate experiments.

PKC epsilon = target: T1, PKC epsilon (Homo sapiens, UniProt Q02156); conditions: 10 μM; cited from earlier work
T1 sequence (Q02156 1-737): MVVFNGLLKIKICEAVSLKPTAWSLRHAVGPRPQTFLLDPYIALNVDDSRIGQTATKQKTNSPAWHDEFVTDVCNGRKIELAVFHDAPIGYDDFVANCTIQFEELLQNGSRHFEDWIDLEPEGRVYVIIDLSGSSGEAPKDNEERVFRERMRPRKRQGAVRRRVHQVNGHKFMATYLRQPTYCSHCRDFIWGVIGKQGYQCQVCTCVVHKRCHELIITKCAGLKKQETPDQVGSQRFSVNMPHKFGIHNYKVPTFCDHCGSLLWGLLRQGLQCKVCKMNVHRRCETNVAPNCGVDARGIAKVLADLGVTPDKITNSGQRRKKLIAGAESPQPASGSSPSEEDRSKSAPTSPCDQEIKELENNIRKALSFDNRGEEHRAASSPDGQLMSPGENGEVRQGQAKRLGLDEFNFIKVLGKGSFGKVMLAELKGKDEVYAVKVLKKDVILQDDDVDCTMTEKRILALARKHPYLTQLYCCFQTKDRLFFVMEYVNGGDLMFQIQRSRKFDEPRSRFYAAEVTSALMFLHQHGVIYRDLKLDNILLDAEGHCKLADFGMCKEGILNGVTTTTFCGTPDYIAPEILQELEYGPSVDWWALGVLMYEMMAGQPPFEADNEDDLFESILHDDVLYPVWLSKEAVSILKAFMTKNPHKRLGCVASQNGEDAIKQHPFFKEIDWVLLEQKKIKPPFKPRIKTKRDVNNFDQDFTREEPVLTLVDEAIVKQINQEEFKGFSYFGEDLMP

[3] = test system: single transformed colony derived GEF16 NIH3T3 cells; test: Growth of cell populations derived from single GEF16 transformed colonies; format: cell-based, mouse; conditions: FIG. 5A
Procedure: FIG. 5 illustrates that the growth suppressive effects of YA1 on single transformed colony derived GEF16 NIH3T3 cells and polyclonal Ras transformed NIH3T3 cells are more pronounced when these are co-cultured with non-transformed cells. In FIG. 5A single transformed colonies were picked from 10 day cultures of GEF16 polyclonal NIH3T3 cells and expanded. These cells were then seeded at 2.0×10^5 cells per 30 mm dish and treated with 10 μM of YA1 or DMSO control either immediately or following 10 days in culture. Duplicate wells were harvested for flow cytometry. In FIG. 5B a total of 2×10^5 cells per well were plated consisting of increasing numbers of non-transformed vector cells co-cultured with decreasing numbers of single transformed colony derived GEF16 cells. These were treated with 10 μM of either YA1 or DMSO for 10 days. In producing the results shown in FIG. 5C the same co-culture experiment described in connection with FIG. 5B was carried out substituting polyclonal Ras transformed NIH3T3 cells for GEF16 transformed cells.
Single transformed colonies were picked from GEF16 polyclonal NIH3T3 cells and expanded according to the methods described above. Expanded cell populations were plated and a compound of the invention (YA1) added either immediately or after 10 days when the cells were post-confluent.

p38 alpha (MAPK14) = p38 alpha (MAPK14) (Homo sapiens, UniProt Q16539); test: SelectScreen in vitro kinase profiling, single point; conditions: additional single point analysis, 10 μM
ROCK2 = ROCK2 (Homo sapiens, UniProt O75116); test: SelectScreen additional single point analysis; conditions: 10 μM
Aurora A = target: T2, Aurora A (Homo sapiens, UniProt O14965); test: SelectScreen in vitro kinase profiling, single point; conditions: additional single point analysis, 10 μM
T2 sequence (O14965 1-403): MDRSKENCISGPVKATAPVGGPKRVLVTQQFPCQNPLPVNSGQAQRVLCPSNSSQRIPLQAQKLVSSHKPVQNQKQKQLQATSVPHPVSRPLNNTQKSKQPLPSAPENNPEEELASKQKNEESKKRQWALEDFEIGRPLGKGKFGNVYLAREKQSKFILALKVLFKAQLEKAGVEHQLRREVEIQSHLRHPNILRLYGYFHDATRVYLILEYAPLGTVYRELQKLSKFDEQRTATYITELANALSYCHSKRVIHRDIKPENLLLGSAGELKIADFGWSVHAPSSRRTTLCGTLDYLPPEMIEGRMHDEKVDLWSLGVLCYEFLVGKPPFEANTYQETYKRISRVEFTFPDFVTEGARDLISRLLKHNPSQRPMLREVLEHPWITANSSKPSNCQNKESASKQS

HGK (MAP4K4) = HGK (MAP4K4) (Homo sapiens, UniProt O95819); test: as above; conditions: additional single point analysis, 10 μM
ROCK1 = ROCK1 (Homo sapiens, UniProt Q13464); test: SelectScreen additional single point analysis; conditions: 10 μM
recombinant ROCK = test: In vitro ROCK activity assay (Cyclex Rho-kinase immunoassay); format: biochemical; conditions: FIG. 2A bar chart
Procedure: A specific assay was used to evaluate the ability of the compounds of the invention to inhibit ROCK. Rho-kinase activity was determined using an immunoassay as recommended by the manufacturer (Cyclex Co., Ltd., Nagano, Japan). Briefly, […] samples containing 10 mUnit (1 Unit incorporates 1 nmol of phosphate into GST-MBS/MYPT1 per minute at 30° C.) of recombinant ROCK with or without the compounds of the invention were aliquoted into a 96-well plate (100 μl/well), pre-coated with threonine Rho-kinase phosphorylation substrate. After 30 min incubation at 30° C., the plate was washed three times with PBS then incubated with 100 μl/well of HRP conjugated anti-phospho-specific antibody for 1 h at room temperature. The amount of phosphorylated substrate was determined by adding 100 μl/well of substrate reagent for 10 min and the reaction was terminated by adding 100 μl/well of the stop solution. The absorbance was measured on a 96-well plate reader at 450 nm (Dynex Technologies, West Sussex, UK). Each data point was performed in triplicate and the assay was repeated twice.

Chain of HGK (MAP4K4) (O95819 whole entry): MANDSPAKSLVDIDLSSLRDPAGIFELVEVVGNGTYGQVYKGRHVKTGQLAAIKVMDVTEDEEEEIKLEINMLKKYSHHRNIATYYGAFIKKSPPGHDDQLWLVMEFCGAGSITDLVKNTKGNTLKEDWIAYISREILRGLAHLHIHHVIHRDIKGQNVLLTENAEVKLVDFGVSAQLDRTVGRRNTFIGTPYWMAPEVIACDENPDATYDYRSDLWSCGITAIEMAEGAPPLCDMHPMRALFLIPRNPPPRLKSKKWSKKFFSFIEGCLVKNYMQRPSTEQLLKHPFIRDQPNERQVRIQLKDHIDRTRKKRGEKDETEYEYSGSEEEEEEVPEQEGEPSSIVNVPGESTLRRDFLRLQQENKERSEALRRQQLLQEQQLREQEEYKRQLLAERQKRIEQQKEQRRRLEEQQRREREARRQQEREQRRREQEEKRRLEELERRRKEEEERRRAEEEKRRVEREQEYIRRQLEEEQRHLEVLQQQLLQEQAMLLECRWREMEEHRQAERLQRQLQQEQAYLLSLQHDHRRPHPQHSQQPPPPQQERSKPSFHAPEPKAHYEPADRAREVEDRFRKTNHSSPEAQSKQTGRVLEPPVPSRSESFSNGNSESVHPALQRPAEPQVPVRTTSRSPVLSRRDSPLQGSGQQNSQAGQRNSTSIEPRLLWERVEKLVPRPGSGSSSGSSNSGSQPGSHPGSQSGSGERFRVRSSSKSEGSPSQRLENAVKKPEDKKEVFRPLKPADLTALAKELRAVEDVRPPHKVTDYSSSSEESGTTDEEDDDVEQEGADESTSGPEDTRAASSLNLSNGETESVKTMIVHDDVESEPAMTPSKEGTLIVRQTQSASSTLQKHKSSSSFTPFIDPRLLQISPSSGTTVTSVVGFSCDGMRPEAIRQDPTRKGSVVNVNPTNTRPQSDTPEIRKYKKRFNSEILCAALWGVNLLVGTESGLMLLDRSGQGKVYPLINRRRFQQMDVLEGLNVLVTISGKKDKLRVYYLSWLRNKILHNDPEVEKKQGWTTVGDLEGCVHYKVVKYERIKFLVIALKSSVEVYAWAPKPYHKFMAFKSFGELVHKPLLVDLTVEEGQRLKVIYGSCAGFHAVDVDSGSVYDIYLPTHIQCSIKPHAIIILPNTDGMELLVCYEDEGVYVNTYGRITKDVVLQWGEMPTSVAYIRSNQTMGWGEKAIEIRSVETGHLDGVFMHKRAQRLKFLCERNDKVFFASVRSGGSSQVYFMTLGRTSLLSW
Chain of ROCK1 (Q13464 whole entry): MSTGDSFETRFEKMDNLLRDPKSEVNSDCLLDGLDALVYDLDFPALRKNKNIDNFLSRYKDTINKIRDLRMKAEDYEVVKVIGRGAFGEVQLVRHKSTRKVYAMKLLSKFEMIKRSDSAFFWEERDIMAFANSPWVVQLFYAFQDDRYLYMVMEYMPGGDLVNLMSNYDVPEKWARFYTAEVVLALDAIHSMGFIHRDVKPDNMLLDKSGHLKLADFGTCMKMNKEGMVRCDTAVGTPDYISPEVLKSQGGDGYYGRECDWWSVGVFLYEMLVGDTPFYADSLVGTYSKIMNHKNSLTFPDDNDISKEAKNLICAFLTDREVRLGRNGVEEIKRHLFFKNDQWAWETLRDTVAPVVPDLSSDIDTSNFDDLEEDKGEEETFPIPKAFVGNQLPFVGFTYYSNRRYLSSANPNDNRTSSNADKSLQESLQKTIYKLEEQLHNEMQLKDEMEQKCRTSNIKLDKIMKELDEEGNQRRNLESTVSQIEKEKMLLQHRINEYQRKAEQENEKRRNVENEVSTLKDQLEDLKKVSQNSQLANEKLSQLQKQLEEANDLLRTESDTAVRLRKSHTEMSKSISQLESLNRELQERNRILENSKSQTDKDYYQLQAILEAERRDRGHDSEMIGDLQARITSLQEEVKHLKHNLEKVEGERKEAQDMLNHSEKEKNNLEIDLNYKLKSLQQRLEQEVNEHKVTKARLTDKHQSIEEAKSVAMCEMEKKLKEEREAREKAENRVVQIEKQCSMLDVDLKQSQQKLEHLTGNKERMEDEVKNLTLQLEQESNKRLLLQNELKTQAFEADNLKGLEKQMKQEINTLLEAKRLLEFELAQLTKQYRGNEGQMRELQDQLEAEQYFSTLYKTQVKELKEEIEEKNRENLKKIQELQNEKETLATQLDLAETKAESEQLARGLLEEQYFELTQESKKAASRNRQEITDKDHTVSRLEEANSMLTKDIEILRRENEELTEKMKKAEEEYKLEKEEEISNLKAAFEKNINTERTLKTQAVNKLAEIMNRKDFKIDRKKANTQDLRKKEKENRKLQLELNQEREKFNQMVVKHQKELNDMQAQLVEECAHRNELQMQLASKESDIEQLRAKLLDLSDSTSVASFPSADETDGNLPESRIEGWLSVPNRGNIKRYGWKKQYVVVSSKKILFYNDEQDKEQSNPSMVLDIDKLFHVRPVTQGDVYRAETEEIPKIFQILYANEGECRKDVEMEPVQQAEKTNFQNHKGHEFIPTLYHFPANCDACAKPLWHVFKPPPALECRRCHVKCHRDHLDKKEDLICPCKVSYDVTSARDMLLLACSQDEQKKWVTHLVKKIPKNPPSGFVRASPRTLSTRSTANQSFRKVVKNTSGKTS
Chain of ROCK2 (O75116 whole entry): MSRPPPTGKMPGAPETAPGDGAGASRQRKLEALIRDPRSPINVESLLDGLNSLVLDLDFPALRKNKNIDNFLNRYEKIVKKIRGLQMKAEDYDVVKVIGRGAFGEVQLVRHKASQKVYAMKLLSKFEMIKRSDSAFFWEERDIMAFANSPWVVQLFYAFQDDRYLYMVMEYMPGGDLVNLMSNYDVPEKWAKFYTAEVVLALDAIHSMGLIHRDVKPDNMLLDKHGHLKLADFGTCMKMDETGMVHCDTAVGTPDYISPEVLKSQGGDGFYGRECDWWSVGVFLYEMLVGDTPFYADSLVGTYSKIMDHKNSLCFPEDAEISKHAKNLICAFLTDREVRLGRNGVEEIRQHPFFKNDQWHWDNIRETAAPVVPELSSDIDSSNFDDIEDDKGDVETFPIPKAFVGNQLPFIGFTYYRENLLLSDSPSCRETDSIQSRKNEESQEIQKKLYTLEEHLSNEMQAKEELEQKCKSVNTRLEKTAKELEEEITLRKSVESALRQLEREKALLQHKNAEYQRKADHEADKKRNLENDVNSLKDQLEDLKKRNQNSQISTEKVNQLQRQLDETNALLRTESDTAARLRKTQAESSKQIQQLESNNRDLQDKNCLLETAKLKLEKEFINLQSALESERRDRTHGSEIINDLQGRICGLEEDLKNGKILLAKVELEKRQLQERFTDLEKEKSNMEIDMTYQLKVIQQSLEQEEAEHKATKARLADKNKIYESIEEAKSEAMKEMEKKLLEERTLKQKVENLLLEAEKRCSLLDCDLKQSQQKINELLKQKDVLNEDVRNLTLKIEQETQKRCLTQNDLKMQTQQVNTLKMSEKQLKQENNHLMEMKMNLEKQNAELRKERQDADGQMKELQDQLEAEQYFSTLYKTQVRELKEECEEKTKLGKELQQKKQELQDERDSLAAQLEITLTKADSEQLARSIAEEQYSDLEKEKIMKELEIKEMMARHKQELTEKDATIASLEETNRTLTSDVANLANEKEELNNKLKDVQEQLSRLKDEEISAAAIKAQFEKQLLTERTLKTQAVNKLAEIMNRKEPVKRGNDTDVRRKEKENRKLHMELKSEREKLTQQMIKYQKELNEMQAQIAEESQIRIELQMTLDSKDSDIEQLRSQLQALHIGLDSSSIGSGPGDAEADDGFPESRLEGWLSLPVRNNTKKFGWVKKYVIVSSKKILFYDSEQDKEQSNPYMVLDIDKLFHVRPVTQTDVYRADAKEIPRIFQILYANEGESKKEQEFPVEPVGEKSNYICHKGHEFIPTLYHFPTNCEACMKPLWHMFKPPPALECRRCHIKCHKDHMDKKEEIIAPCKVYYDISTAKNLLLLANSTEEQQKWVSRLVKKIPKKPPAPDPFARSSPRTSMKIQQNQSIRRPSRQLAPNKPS
Chain of p38 alpha (MAPK14) (Q16539 whole entry): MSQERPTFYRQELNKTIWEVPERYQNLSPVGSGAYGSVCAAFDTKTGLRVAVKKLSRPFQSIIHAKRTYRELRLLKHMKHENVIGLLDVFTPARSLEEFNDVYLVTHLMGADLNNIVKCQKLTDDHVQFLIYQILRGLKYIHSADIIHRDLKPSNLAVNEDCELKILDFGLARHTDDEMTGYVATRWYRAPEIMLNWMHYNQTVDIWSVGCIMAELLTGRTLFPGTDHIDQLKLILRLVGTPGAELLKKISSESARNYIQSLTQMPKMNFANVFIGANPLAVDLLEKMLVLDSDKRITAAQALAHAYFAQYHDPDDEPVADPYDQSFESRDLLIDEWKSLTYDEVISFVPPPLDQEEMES

## C[S+]([O-])c1ccc(-c2nc(-c3ccncc3)c(-c3ccc(F)cc3)[nH]2)cc1 (stereo not shown) [SB203580, reference compound]
[1]; further studies by the inventors
  activity against GEF16 transformed colonies: some activity against GEF16 transformed colonies although this was much less than the compound of the invention YA1

## C[C@@H](N)[C@H]1CC[C@H](C(=O)Nc2ccncc2)CC1 [Compound Y27632, reference compound]
[1]; 10 μM for 2-10 days, re-seeded at 2×10^5, 10 day chase without inhibitor
  transformed focus formation after treatment, re-seeding and chase: able to suppress transformed focus formation
[1]; 10 μM, 10 days, post confluent cultures
  formation of GEF16 transformed colonies: suppresses the formation of GEF16 transformed NIH3T3 cell colonies
[1]; colonies formed for 10 days, then 10 μM or 20 μM for 3 and 6 days
  effect on pre-formed transformed colonies: very little effect on pre-formed transformed colonies; also recorded: Neither Y27632 nor the other compounds of the invention tested (data not shown) exhibited this property
[2]
  growth of confluent GEF16 transformed cells: inhibits the growth of confluent GEF16 transformed cells
PKC epsilon
  inhibition of PKC epsilon: 94%
[3]
  effect on single colony derived GEF16 transformed cells grown in the absence of non-transformed cells: little or no effect

## CN(C(=O)c1ccc(CNC(=O)OC(C)(C)C)cc1)c1ccncc1 [YA4, 4-(N-Methyl-N-pyridin-4-ylcarbamoyl)benzylcarbamic acid tert-butyl ester]
p38 alpha (MAPK14)
  activity against p38: significant activity against p38, HGK and Aurora A
ROCK2
  activity against ROCK2: less activity against ROCKs than YA2
Aurora A
  activity against Aurora A: significant activity against p38, HGK and Aurora A
HGK (MAP4K4)
  activity against HGK: significant activity against p38, HGK and Aurora A
ROCK1
  activity against ROCK1: less activity against ROCKs than YA2
Recombinant ROCK
  ROCK inhibitory activity compared to Y27632: lower ROCK inhibitory activity; also recorded: significantly less activity against ROCK than did their structural analogue Y27632
